Measured values as given in ChEMBL document CHEMBL3885881, “DrugMatrix”.

Organism: Rattus norvegicus
Test: DrugMatrix - Regimen: Daily Repeat
Type: toxicity, organism-based, Sprague-Dawley
Design: regimen Daily Repeat, gender Male, age 6-8 weeks
Settings: in vivo, po, 70 mg/kg, route oral GAVAGE, dose level Low, vehicle 100 % WATER; for ABSOLUTE BASOPHIL / ABSOLUTE EOSINOPHIL / ABSOLUTE LYMPHOCYTE / ABSOLUTE MONOCYTE / ABSOLUTE SEGMENTED NEUTROPHIL / BASOPHIL / EOSINOPHIL / ERYTHROCYTE COUNT / HEMATOCRIT / HEMOGLOBIN / LEUKOCYTE COUNT / LYMPHOCYTE / MEAN CORPUSCULAR HEMOGLOBIN / MEAN CORPUSCULAR HEMOGLOBIN CONCENTRATION / MEAN CORPUSCULAR VOLUME / MONOCYTE / NEUTROPHIL / NUCLEATED RED BLOOD CELLS: tissue Blood; for ALANINE AMINOTRANSFERASE / ALBUMIN / ALKALINE PHOSPHATASE / ASPARTATE AMINOTRANSFERASE / BLOOD UREA NITROGEN / CARBON DIOXIDE / CHLORIDE / CHOLESTEROL / CREATINE PHOSPHOKINASE / CREATININE / LACTATE DEHYDROGENASE / LIPASE / PHOSPHORUS / POTASSIUM / SODIUM / TOTAL BILIRUBIN / TOTAL PROTEIN / URIC ACID: tissue Plasma

CN(C)CCCN1c2ccccc2CCc2ccc(Cl)cc21 [CLOMIPRAMINE]
ABSOLUTE BASOPHIL (72 h, time 3 day): 0 CELLS/uL | ABSOLUTE EOSINOPHIL (72 h, time 3 day): 0 CELLS/uL | ABSOLUTE LYMPHOCYTE (72 h, time 3 day): 11511.33 CELLS/uL | ABSOLUTE MONOCYTE (72 h, time 3 day): 50 CELLS/uL | ABSOLUTE SEGMENTED NEUTROPHIL (72 h, time 3 day): 672 CELLS/uL | BASOPHIL (72 h, time 3 day): 0% | EOSINOPHIL (72 h, time 3 day): 0% | ERYTHROCYTE COUNT (72 h, time 3 day): 5.82 x10E6/uL | HEMATOCRIT (72 h, time 3 day): 36.17% | HEMOGLOBIN (72 h, time 3 day): 14.27 G/DL | LEUKOCYTE COUNT (72 h, time 3 day): 12.23 x10E3/uL | LYMPHOCYTE (72 h, time 3 day): 94% | MEAN CORPUSCULAR HEMOGLOBIN (72 h, time 3 day): 24.53 pg | MEAN CORPUSCULAR HEMOGLOBIN CONCENTRATION (72 h, time 3 day): 39.47 G/DL | MEAN CORPUSCULAR VOLUME (72 h, time 3 day): 62.17 fL | MONOCYTE (72 h, time 3 day): 0.33% | NEUTROPHIL (72 h, time 3 day): 5.67% | NUCLEATED RED BLOOD CELLS (72 h, time 3 day): 0.33 /100WBC | ALANINE AMINOTRANSFERASE (72 h, time 3 day): 52.33 u/L | ALBUMIN (72 h, time 3 day): 4.17 G/DL | ALKALINE PHOSPHATASE (72 h, time 3 day): 458.67 u/L | ASPARTATE AMINOTRANSFERASE (72 h, time 3 day): 99 u/L | BLOOD UREA NITROGEN (72 h, time 3 day): 15.67 mg/dL | CARBON DIOXIDE (72 h, time 3 day): 24.67 mmol/L | CHLORIDE (72 h, time 3 day): 101 MEQ/L | CHOLESTEROL (72 h, time 3 day): 73 mg/dL | CREATINE PHOSPHOKINASE (72 h, time 3 day): 853.67 u/L | CREATININE (72 h, time 3 day): 0.22 mg/dL | LACTATE DEHYDROGENASE (72 h, time 3 day): 317.67 u/L | LIPASE (72 h, time 3 day): 9 u/L | PHOSPHORUS (72 h, time 3 day): 13.47 mg/dL | POTASSIUM (72 h, time 3 day): 6.22 MEQ/L | SODIUM (72 h, time 3 day): 146.57 MEQ/L | TOTAL BILIRUBIN (72 h, time 3 day): 0.27 mg/dL | TOTAL PROTEIN (72 h, time 3 day): 6.07 G/DL | URIC ACID (72 h, time 3 day): 1.93 mg/dL | ABSOLUTE BASOPHIL (120 h, time 5 day): 0 CELLS/uL | ABSOLUTE EOSINOPHIL (120 h, time 5 day): 39.67 CELLS/uL | ABSOLUTE LYMPHOCYTE (120 h, time 5 day): 12212 CELLS/uL | ABSOLUTE MONOCYTE (120 h, time 5 day): 206.67 CELLS/uL | ABSOLUTE SEGMENTED NEUTROPHIL (120 h, time 5 day): 1075 CELLS/uL | BASOPHIL (120 h, time 5 day): 0% | EOSINOPHIL (120 h, time 5 day): 0.33% | ERYTHROCYTE COUNT (120 h, time 5 day): 6.52 x10E6/uL | HEMATOCRIT (120 h, time 5 day): 41.7% | HEMOGLOBIN (120 h, time 5 day): 15.97 G/DL | LEUKOCYTE COUNT (120 h, time 5 day): 13.53 x10E3/uL | LYMPHOCYTE (120 h, time 5 day): 90.33% | MEAN CORPUSCULAR HEMOGLOBIN (120 h, time 5 day): 24.53 pg | MEAN CORPUSCULAR HEMOGLOBIN CONCENTRATION (120 h, time 5 day): 38.27 G/DL | MEAN CORPUSCULAR VOLUME (120 h, time 5 day): 64.07 fL | MONOCYTE (120 h, time 5 day): 1.33% | NEUTROPHIL (120 h, time 5 day): 8% | NUCLEATED RED BLOOD CELLS (120 h, time 5 day): 1 /100WBC | ALANINE AMINOTRANSFERASE (120 h, time 5 day): 54 u/L | ALBUMIN (120 h, time 5 day): 4.67 G/DL | ALKALINE PHOSPHATASE (120 h, time 5 day): 417.67 u/L | ASPARTATE AMINOTRANSFERASE (120 h, time 5 day): 75.33 u/L | BLOOD UREA NITROGEN (120 h, time 5 day): 13.33 mg/dL | CARBON DIOXIDE (120 h, time 5 day): 27.67 mmol/L | CHLORIDE (120 h, time 5 day): 100.33 MEQ/L | CHOLESTEROL (120 h, time 5 day): 74 mg/dL | CREATINE PHOSPHOKINASE (120 h, time 5 day): 213 u/L | CREATININE (120 h, time 5 day): 0.2 mg/dL | LACTATE DEHYDROGENASE (120 h, time 5 day): 196.67 u/L | LIPASE (120 h, time 5 day): 8.67 u/L | PHOSPHORUS (120 h, time 5 day): 12.07 mg/dL | POTASSIUM (120 h, time 5 day): 6.7 MEQ/L | SODIUM (120 h, time 5 day): 146.33 MEQ/L | TOTAL BILIRUBIN (120 h, time 5 day): 0.2 mg/dL | TOTAL PROTEIN (120 h, time 5 day): 6.57 G/DL | URIC ACID (120 h, time 5 day): 1.57 mg/dL
